Values quoted from earlier work, collected in patent US20080194494A1, “4-Biarylyl-1-Phenylazetidin-2-One Glucuronide Derivatives for Hypercholesterolemia” (MICROBIA, INC., priority 2005, published 2008).

What was measured:
[1] = in humans
[2] = in vivo

In the case of `O=C1[C@H](CC[C@H](O)c2ccc(F)cc2)[C@@H](c2ccc(O)cc2)N1c1ccc(F)cc1` [ezetimibe, (3R,4S)-1-(4-fluorophenyl)-3-[(3S)-3-(4-fluorophenyl)-3-hydroxypropyl]-4-(4-hydroxyphenyl)azetidin-2-one], the “effect on fat-soluble vitamin absorption” value [1] is listed as “does not appear to affect” and the “inhibition of the absorption of taurocholic acid” value [2] is listed as “does not inhibit”.
